From patent US11352637B2, “Methods and compositions for herbicide tolerance in plants” (MONSANTO TECHNOLOGY LLC, priority 2017, dated 2022)
Like-named read-outs stand apart in the source and are kept apart here.

Experiments:
[1] = test system: KsIAA16S in combination with KsTIR1; assay: Yeast two-hybrid (Y2H) assay: KsIAA16S binding with KsTIR1 in presence of auxin; set-up: species or system Kochia scoparia; settings: allele KsIAA16S, yeast colony growth
Method: (§1) Yeast two-hybrid (Y2H) studies were conducted using the Matchmaker® Gold Yeast Two-Hybrid System: vectors, transformation protocols and yeast strains (Clonetech Laboratories, Inc.). The coding sequences for the KsIAA16R (SEQ ID NO: 220), KsIAA16S (SEQ ID NO: 218), KsTIR1 (SEQ ID NO: 285), KsAFB6 (SEQ ID NO: 287), KsAFB2 (SEQ ID NO: 289), and KsAFB5 (SEQ ID NO: 291) were PCR amplified using primers specified in Table 2.
(§2) PCR products were gel purified and recombined into NdeI/NotI digested pGADT7 or pGBKT7 vectors using the In-Fusion® cloning system (Clonetech Laboratories, Inc.). The pGBKT7 vector contained the GAL4 DNA binding domain, rendering the fusions as the “bait,” whereas the “prey” were the fusions containing the pGADT7 vector, which contained the GAL4 activation domain. All vectors were first sequence verified and then the listed vector combinations were co-transformed into the yeast strain, Y2HGold. […] Transformants were plated on SC-Trp-Leu plates to select for those containing both plasmids. Four healthy colonies were selected at random and resuspended into 300 μL of 0.1% agar in water. Five μL of this dilution was replica spotted onto each plate. Plates were incubated at 30° C. for 3 days prior to evaluation of colony growth. […]

[2] = test system: KsIAA16R in combination with KsTIR1; assay: Yeast two-hybrid (Y2H) assay: KsIAA16R binding with KsTIR1 in presence of auxin; set-up: species or system Kochia scoparia; settings: compared with KsIAA16S; concentration not given
Method: as §1, §2

[3] = test system: KsIAA16 (R and S alleles) with KsTIR1 and/or KsAFB6; assay: Y2H assay, summary statements over the protein combinations tested; format: binding, Kochia scoparia; settings: at the concentrations tested
Method: as §1
PCR products were gel purified and recombined into NdeI/NotI digested pGADT7 or pGBKT7 vectors using the In-Fusion® cloning system (Clonetech Laboratories, Inc.). The pGBKT7 vector contained the GAL4 DNA binding domain, rendering the fusions as the “bait,” whereas the “prey” were the fusions containing the pGADT7 vector, which contained the GAL4 activation domain. All vectors were first sequence verified and then the listed vector combinations were co-transformed into the yeast strain, Y2HGold. […] Transformants were plated on SC-Trp-Leu plates to select for those containing both plasmids. Four healthy colonies were selected at random and resuspended into 300 μL of 0.1% agar in water. Five μL of this dilution was replica spotted onto each plate. Plates were incubated at 30° C. for 3 days prior to evaluation of colony growth.
This method enabled the study of the binding/interaction of the Kochia R and S alleles of KsIAA16 with each of the Kochia TIR/AFB homologs (KsTIR1 (SEQ ID NO: 285), and KsAFB6 (SEQ ID NO: 287)) in the absence or presence of 100 μM or 500 μM exogenous concentrations of IAA, NAA, dicamba, and 2,4-D, picloram, triclopyr, quinclorac, fluroxypyr or phenylacetic acid (PAA).

[4] = test system: seedlings of the R and S Kochia biotypes; assay: Root elongation response of Kochia seedlings; format: in vivo, Kochia scoparia; settings: R biotype seedlings; FIG. 5
Method: The root elongation response of seedlings from the R and S Kochia biotypes was tested to determine if the R biotype response was consistent with the Y2H findings. For root elongation studies, plant nutrient media was used, with 0.5% sucrose. Seeds were surface sterilized in 30% bleach with 0.1% Triton-X100 for 10 to 30 minutes, then rinsed twice in sterile water and resuspended in 0.1% agar for plating. Root lengths were measured to the nearest millimeter, and the average root length of 12 individuals was calculated unless otherwise noted.

[5] = test system: Kochia F2 progeny (S/S, R/S, R/R); settings: spray 1120 g/ha
Method: To determine whether the KsIAA16R allele co-segregates with the dicamba resistance phenotype, spray tests were performed on Kochia populations comprising S and R plants. Crosses between S and R individuals were performed, utilizing the S biotype as the female and the R biotype as the male in order to identify individuals resulting from cross pollination. […] Several verified heterozygous F1 plants were selected for F2 seed production. In addition, a subset of S/S and R/S individuals from the F1 generation was subjected to dicamba sprays to ensure that the marker could effectively identify the R allele.
To determine whether the KsIAA16R allele co-segregates with the dicamba resistance phenotype, 720 F2 progeny from verified heterozygous F1 parental plants were sampled and genotyped, and tolerance to a dicamba spray concentration double the typical dicamba field use rate (1120 g/ha) was determined. Plant identity was maintained throughout the experiment, and genotype and percent visible dicamba injury was determined for each of the F2 progeny.

[6] = test system: transgenic Arabidopsis carrying AtIAA16P:KsIAA16 constructs; assay: Root elongation inhibition assay of T2 transgenic Arabidopsis on plant nutrient plus IAA or dicamba; format: in vivo, Arabidopsis thaliana
Source text: To determine if the presence of the KsIAA16R allele alone was necessary and sufficient to confer dicamba resistance, several transgene expression constructs were generated for study of KsIAA16 in Arabidopsis. Agrobacterium tumefaciens was used to introduce the binary vectors in the plants using the floral dip method (Clough and Bent, 1998). Vectors contained either the ethanol inducible alcA promoter elements (Salter et al., 1998), the constitutive CaMV35S promoter, or the native Arabidopsis IAA16 promoter (AtIAA16P) driving either KsIAA16R (SEQ ID NO: 220) or KsIAA16S (SEQ ID NO: 218). GUS reporter constructs contained a 2.5 kb genomic DNA fragment from directly upstream of KsIAA16, which is expected to contain most of the promoter elements as well as the 5′UTR, driving uidA. All constructs contained either a Spectinomycin resistance gene (SPEC) or a glufosinate resistance gene (BAR) in the T-DNA region to serve as the selectable marker. For all constructs, T1 seed was harvested, surface sterilized, and plated on the appropriate selective media to identify independent T1 transformants. Single seed decent and segregation on selective media was used to estimate transgene insertion number and identify homozygous lines. For induction of the P-Alc promoter, ethanol was added to a final concentration of 0.01% just before plates were poured, and plates were used immediately. All plates were grown in a Percival growth chamber (Percival Scientific, Inc.) at 22° C. with 16 hour day/8 hour night light cycle and a light intensity of […]. Relative humidity was maintained at 50%. GUS assays were performed according to standard protocols. Briefly, a 20 mg/mL X-Gluc (GoldBio, St. Louis, Mo.) stock in dimethylformamide was diluted into 50 mM phosphate buffer, pH 7.0, to a final concentration of 1 mg/mL. This solution was added to plant tissues, and samples were placed under vacuum for 5 minutes to ensure penetration of the solution into the tissues. Samples were covered in foil to prevent light entry and place at 37° C. for 24 hours to allow color development. Staining solution was removed and chlorophyll was cleared by incubating samples in 50% ethanol for several hours.

R and S Kochia biotypes = assay: Greenhouse spray test for cross-resistance of Kochia R-biotype; format: in vivo, Kochia scoparia; settings: all treatments, track sprayer, 10 to 15 cm tall plants
Source text: To elucidate whether the Kochia R-biotype is cross resistant to 2,4-D or fluroxypyr, greenhouse grown 10 to 15 cm tall Kochia plants were sprayed with either Dicamba at 0,140, 280, 560, 2240, 4480, 6720, 8960, or 17920 g a.e.ha^−1; 2,4-D at 0, 70, 140, 280, 560, 1120, 2240, 4480, 6720, 8960 g a.e.ha^−1 or fluroxypyr at 0, 17.5, 35, 70, 140, 280, 420, 560, 1120, 2240 g a.e.ha^−1 with a track sprayer. […]

[7] = test system: dicamba resistant Kochia biotype

With `COc1c(Cl)ccc(Cl)c1C(=O)O` [Dicamba, 3,6-dichloro-2-methoxybenzoic acid] the “Ability to bind in combination with KsTIR1” value ([1]; auxin [100 mM] (text: 100 μM)) was “exhibited interaction”, the “Ability to bind in combination with KsTIR1” value ([1]; auxin [500 mM] (text: 500 μM)) was “exhibited interaction” and the “Ability of KsIAA16R to interact with KsTIR1 in the presence of the auxin” value [2] was “decreased ability to interact”. For the same molecule, the “Facilitation of interaction of KsIAA16R with KsTIR1 and/or KsAFB6” value [3] was “cannot”, the “Root elongation inhibition of the R Kochia biotype” value [4] was “resistant” and the mean injury rating ([5]; R/R individuals) was 24.6%. For the same molecule, the mean injury rating ([5]; R/S individuals) was 35.9%, the mean injury rating ([5]; S/S individuals) was 82.3% and the “average injury per genotype (percent visible dicamba injury)” value ([5]; genotype R/R) was “about 20%”. The “average injury per genotype (percent visible dicamba injury)” value ([5]; genotype R/S) was “about 40%”, the “average injury per genotype (percent visible dicamba injury)” value ([5]; genotype S/S) was “about 80%” and the “Resistance in root elongation inhibition assay” value ([6]; four independent transformant lines carrying AtIAA16P:KsIAA16R) was “showed resistance”. For the same molecule, the “Root Length (in mm) of T2 transgenics on plant nutrient plus auxin” value (shortened to “Root Length (in mm) of T2 transgenics”) ([6]; line AtIAA16P:KsIAA16R_T2-1, +5 μM auxin) was 12.42 ± 1.27 mm, the “Root Length (in mm) of T2 transgenics” value ([6]; line AtIAA16P:KsIAA16R_T2-2, +5 μM auxin) was 15.5 ± 1.45 mm and the “Root Length (in mm) of T2 transgenics” value ([6]; line AtIAA16P:KsIAA16R_T2-3, +5 μM auxin) was 15.58 ± 1.57 mm. For the same molecule, the “Root Length (in mm) of T2 transgenics” value ([6]; line AtIAA16P:KsIAA16R_T2-4, +5 μM auxin) was 17.5 ± 2.12 mm, the “Root Length (in mm) of T2 transgenics” value ([6]; line AtIAA16P:KsIAA16S_T2-1, +5 μM auxin) was 13.50 ± 1.01 mm and the “Root Length (in mm) of T2 transgenics” value ([6]; line AtIAA16P:KsIAA16S_T2-2, +5 μM auxin) was 11.42 ± 1.28 mm. For the same molecule, the “Root Length (in mm) of T2 transgenics” value ([6]; line AtIAA16P:KsIAA16S_T2-3, +5 μM auxin) was 14.17 ± 0.9 mm, the “Root Length (in mm) of T2 transgenics” value ([6]; line AtIAA16P:KsIAA16S_T2-4, +5 μM auxin) was 10.67 ± 0.72 mm and the “Root Length (in mm) on plant nutrient plus auxin” value ([6]; non-transgenic WT, +5 μM auxin) was 9.08 ± 0.66 mm. For the same molecule, the “Resistance in root elongation inhibition assay” value ([6]; only one of the four lines carrying AtIAA16P:KsIAA16S) was “very slight resistance”, the “Visible injury at 14 days after treatment (DAT)” value (R and S Kochia biotypes) was “observed” and the “fold increase in dicamba resistance” value [7] was about 30 fold.
